Legend:
[1] = ABTS radical scavenging assay
Procedure: The ABTS radical scavenging assay was modified according to the method with slight modifications. Briefly, the ABTS radical cation was obtained by mixing ABTS diammonium salt stock solution (7.4 mM) with potassium persulfate (2.6 mM) in equal proportion and reacting it at 37 °C in darkness for 12–16 h. Before used, the absorbance of light green ABTS radical test solution at 745 nm was controlled to be 0.70 ± 0.02 by diluting with methanol. Sample solution and ABTS methanol solution (10 µL:190 µL) were added to 96-well microplate, and L-ascorbic acid was the positive control. After incubation at 37 °C for 10 min, the absorbance was tested at 745 nm using a microplate reader. Scavenging rate was calculated according to Equation (1). (1) ABTS radical scavenging activity (%) =AC–AS/AC×100 where AC and AS are the absorbance of the blank control and the compounds to be tested, respectively.

[2] = DPPH radical scavenging assay
Procedure: The scavenging ability on DPPH radical was conducted based on the method with some modifications. The sample solution and DPPH methanol solution (20 µL:180 µL) were added to a 96-well microplate. L-ascorbic acid was the positive control. The absorbance at 517 nm was measured using a microplate reader after the solution had stood for 30 min at 37 °C under dark conditions. The calculation formula of DPPH radical scavenging activity is consistent with the formula of ABTS radical scavenging activity.

[3] = PTIO radical scavenging assay
Procedure: The PTIO radical scavenging activity was assayed by referring to relevant methods. Briefly, PTIO radical solid (3 mg) was dissolved in 20 mL of methanol, and sample solution and PTIO methanol solution (40 µL:160 µL) were added to a 96-well microplate. The absorbance was determined at 585 nm using a microplate reader after 30 min of incubation and the scavenging rate was calculated on the basis of Equation (2). (2) PTIO radical scavenging activity (%) =[1−AS/AC]×100 where AS is the absorbance of the compounds to be tested and AC is the absorbance of the untreated control.

[4] = tested on: mushroom tyrosinase; experiment: Mushroom tyrosinase inhibitory activity (L-tyrosine substrate); assay type: biochemical; conditions: for Tyrosinase Inhibition (%): at initial concentration of 1 mg/mL, means ± SEMs; for IC50: read-out: Tyrosinase inhibition IC50
Procedure: Mushroom tyrosinase (400 U/mL) and L-tyrosine (3 mM) were added separately in 0.05 M potassium phosphate buffer (pH 6.5). A total of 80 µL of potassium phosphate buffer (pH 6.5), 80 µL of L-tyrosine (3 mM) solution, 20 µL of sample solution and 20 µL of mushroom tyrosinase (400 U/mL) were added to a 96-well microplate. The mixture reacted for 1 h at 37 °C. […] The absorbance was measured at 490 nm using a microplate reader and Equation (3) was used to calculate the inhibition rate. (3) Tyrosinase inhibition activity (%) =AC–AS/AC×100
Equation (3) is the absorbance of the test compound and AC is the absorbance of the untreated control.

[5] = biological target: Acetylcholinesterase (AChE) (Electrophorus electricus, UniProt O42275); experiment: Acetylcholinesterase inhibitory activity (ATCI/DTNB); assay type: biochemical; conditions: for inhibition at 1000 µg/mL: read-out: Acetylcholinesterase Inhibition (%)
Sequence of Acetylcholinesterase (AChE) (O42275 24-633): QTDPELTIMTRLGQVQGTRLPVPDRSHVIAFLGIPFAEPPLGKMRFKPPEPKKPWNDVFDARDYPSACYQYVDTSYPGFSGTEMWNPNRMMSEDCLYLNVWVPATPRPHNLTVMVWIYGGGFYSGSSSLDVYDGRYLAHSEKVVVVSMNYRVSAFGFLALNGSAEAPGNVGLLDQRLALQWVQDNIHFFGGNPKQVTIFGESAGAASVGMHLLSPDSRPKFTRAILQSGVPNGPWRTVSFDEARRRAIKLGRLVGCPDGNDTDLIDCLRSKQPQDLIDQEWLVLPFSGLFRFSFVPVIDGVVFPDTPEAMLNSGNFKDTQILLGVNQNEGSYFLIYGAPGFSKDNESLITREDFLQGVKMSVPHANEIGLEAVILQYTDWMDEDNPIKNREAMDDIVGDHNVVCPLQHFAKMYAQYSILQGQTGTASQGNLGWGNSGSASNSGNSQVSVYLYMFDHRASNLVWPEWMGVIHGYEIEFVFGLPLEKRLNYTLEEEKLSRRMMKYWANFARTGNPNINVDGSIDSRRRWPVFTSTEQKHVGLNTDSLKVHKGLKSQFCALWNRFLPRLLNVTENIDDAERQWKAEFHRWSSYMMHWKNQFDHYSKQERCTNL
Procedure: The experiment of acetylcholinesterase inhibition activity was slightly modified according to the literature [55]. Acetylcholinesterase (AChE) and acetylthiocholine iodide (ATCI) were dissolved in 0.1 M phosphate buffer (pH 8.0). 5,5′-Dithiobis-(2-nitrobenzoic acid) (DTNB) was prepared in 10 mL of 0.1 M phosphate buffer (pH 7.0) with a small amount of NaHCO3. A total of 120 µL of 0.1 M phosphate buffer (pH 8.0), 20 µL of 3 mM DTNB solution, 20 µL of sample solution and 20 µL of AChE (0.2 U/mL) were sequentially added to the 96-well microplate, and the mixture reacted for 10 min at 37 °C. The reaction was started by adding 20 µL of 3 mM ATCI and the mixture was incubated at 37 °C for 20 min. Donepezil was chosen as the positive control. […] (4) Acetylcholinesterase inhibition activity (%) =[1−(AS–Aj)/AC]×100 where As and Aj are the absorbance of the compound to be tested and tested compound blanks, respectively, and AC is the absorbance of the untreated control.

Compound | IC50 [1] | IC50 [2] | IC50 [3] | Tyrosinase Inhibition (%) [4] | IC50 [4] | inhibition at 1000 µg/mL [5] | Acetylcholinesterase Inhibition (%) ([5]; at initial concentration of 1 mg/mL, means ± SEMs) | IC50 ([5]; read-out: Acetylcholinesterase inhibition IC50)
O=C(O)c1cc(O)c(O)c(O)c1 [Compound 13, gallic acid] | 179 µM | 770 µM | > 100000 µM | 80.00 ± 0.78% | 590 µM | 71.74 ± 0.4% | – | –
O=c1c(O)c(-c2ccc(O)c(O)c2)oc2cc(O)cc(O)c12 [Compound 5, quercetin] | 97 µM | 590 µM | 6360 µM | 77.29 ± 1.52% | – | 83.65 ± 0.48% | – | –
O=C1c2c(O[C@@H]3O[C@H](CO)[C@@H](O)[C@H](O)[C@H]3O)cc(O)cc2OC1(O)Cc1ccc(O)cc1 (stereo partly drawn) [Compound 15, hovetrichoside C] | > 500 µM | > 100000 µM | > 100000 µM | 42.08 ± 0.54% | 4040 µM | 39.91 ± 0.36% | – | –
C[C@@H]1O[C@@H](Oc2c(-c3cc(O)c(O)c(O)c3)oc3cc(Oc4cc(O)c5c(=O)c(O[C@@H]6O[C@@H](C)[C@H](O)[C@@H](O)[C@H]6O)c(-c6cc(O)c(O)c(O)c6)oc5c4)cc(O)c3c2=O)[C@H](O)[C@H](O)[C@H]1O [Compound 10, myricetin-3-O-rhamnoside-(C7-I-O-C7-II)-myricetin-3-O-rhamnoside] | 45 µM | 560 µM | 530 µM | 66.04 ± 0.62% | 650 µM | 61.3 ± 0.38% | – | –
COC(=O)[C@@H](O)[C@H](OC(=O)/C=C/c1ccc(O)cc1)C(=O)OC [Compound 1, (2′S, 3′S)-trans-4-coumaroyltartaric acid dimethyl ester] | > 500 µM | > 100000 µM | > 100000 µM | 53.13 ± 0.65% | 2630 µM | 38.43 ± 0.2% | – | –
COC(=O)C[C@H]1CCC(=O)[C@H]1C/C=C\CCO[C@@H]1O[C@H](CO)[C@@H](O)[C@H](O)[C@H]1O [Compound 14, methyl-β-D-glucopyranosyl tuberonate] | > 500 µM | > 100000 µM | > 100000 µM | 37.71 ± 0.56% | – | 47.18 ± 0.16% | – | –
CC[C@H](CC[C@@H](C)[C@H]1CC[C@H]2[C@@H]3CC=C4C[C@@H](O[C@@H]5O[C@H](CO)[C@@H](O)[C@H](O)[C@H]5O)CC[C@]4(C)[C@H]3CC[C@]12C)C(C)C [Compound 11] | > 500 µM | > 100000 µM | > 100000 µM | 29.79 ± 0.88% | 8840 µM | 40.8 ± 0.41% | – | –
C[C@@H]1O[C@@H](Oc2c(-c3ccc(O)cc3)oc3cc(O)cc(O)c3c2=O)[C@H](O)[C@H](O)[C@H]1O [Compound 7, afzelin] | > 500 µM | > 100000 µM | > 100000 µM | 32.71 ± 1.51% | 9240 µM | – | – | –
O=C1O[C@H]([C@@H](O)CO)C(O)=C1O [L-ascorbic acid, reference compound] | 156 µM | 440 µM | 1610 µM | – | – | – | – | –
O=c1c(O)c(-c2ccc(O)cc2)oc2cc(O)cc(O)c12 [Compound 6, kaempferol] | 108 µM | 590 µM | 14700 µM | 57.50 ± 0.82% | 1690 µM | 82.21 ± 0.09% | – | –
C[C@@H]1O[C@@H](Oc2c(-c3ccc(O)c(O)c3)oc3cc(O)cc(O)c3c2=O)[C@H](O)[C@H](O)[C@H]1O [Compound 8, quercitrin] | > 500 µM | 6560 µM | > 100000 µM | 39.17 ± 0.86% | 4960 µM | 40.11 ± 0.31% | – | –
COc1cc(-c2oc3cc(O)cc(O)c3c(=O)c2O)ccc1O [Compound 4, isorhamnetin] | > 500 µM | 6250 µM | 44300 µM | 44.17 ± 0.85% | 4690 µM | 68.13 ± 0.24% | – | –
CC(=O)CCc1ccc(O[C@@H]2O[C@H](CO)[C@@H](O)[C@H](O)[C@H]2O)cc1 [Compound 12, 4-(4′-Hydroxyphenyl)-2-butanone-4′-O-β-D-glucopyranoside] | > 500 µM | 34900 µM | > 100000 µM | 35.63 ± 1.01% | 7470 µM | 39.8 ± 0.53% | – | –
COC(=O)[C@H](O)[C@@H](OC(=O)/C=C/c1ccc(O)cc1)C(=O)O [Compound 2, (2′R, 3′R)-trans-4-coumaroyl-4′-methoxyl-tartaric acid] | > 500 µM | > 100000 µM | > 100000 µM | 53.54 ± 0.90% | 2590 µM | 39.46 ± 0.25% | – | –
O=c1c(O)c(-c2cc(O)c(O)c(O)c2)oc2cc(O)cc(O)c12 [Compound 3, myricetin] | 94 µM | 870 µM | 2560 µM | 60.00 ± 1.49% | 1390 µM | 85.27 ± 0.06% | – | –
kaempferol-3-O-rutinoside [Compound 9] | > 500 µM | > 100000 µM | 27600 µM | 23.54 ± 1.04% | – | – | 39.90 ± 0.33% | > 1000 µM
